Consider 14 compounds from patent US20230117034A1, “PYRAZOLOTRIAZINES” (Bayer Aktiengesellschaft, priority 2019, published 2023).

pIC50: −log10 of the molar value. A value given as a limit tells only on which side of the number the result lay.

Test [1] addresses T1, CDK12 (nuclear staining in CAL-120 cells) (Homo sapiens, UniProt Q9NYV4).
T1 construct: endogenous in cells; host or cells: CAL-120 human breast cancer cells (DSMZ ACC 459)
Kind of test: CDK12 nuclear protein level: immunofluorescence/high content analysis (CAL-120). In kind it is cell-based. Conditions: for DC50: CAL-120 cells, 24 h, immunofluorescence, 50% reduction of nuclear CDK12 staining intensity, median, read-out: CDK12 degradation IF, DC50- [mol/l] (median); for (IC50 CDK12 high ATP) to (Degradation DC50 CDK12) ratio: ratio of IC50 CDK12 high ATP kinase assay to DC50 CDK12 degradation (IF, CAL-120). Put shortly: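 DC50 is the degrader concentration that halves nuclear CDK12 immunofluorescence relative to controls, measured by high-content imaging. CAL-120 cells were exposed to compound for 24 h at 37 °C before PFA fixation, and signal was normalized to DMSO and control wells.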

The subject of test [2] is BRCA1 mRNA expression in MDA-MB-231 cells. Briefly: qRT-PCR assay: BRCA1 mRNA expression in MDA-MB-231. In kind it is cell-based, human. The following applies: Homo sapiens, MDA-MB-231, Inhibition of BRCA1 mRNA expression in MDA-MB-231 cells; median; read-out: RTqPCR-MDA-MB-231, IC50, BRCA1 (median). The gist of the method:
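First, cells are plated at 200,000 per well and allowed 24 h. Second, test substances are applied continuously for a further 24 h. Finally, RNA is isolated, 600 ng is converted to cDNA, and qPCR quantifies the transcript relative to GAPDH.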
(Quantitative PCR measures a nucleic acid by following its amplification.)

The subject of test [3] is MDA-MB-231, human breast cancer cells. Kind of test: Proliferation assay MDA-MB-231 (crystal violet, 4 days). In kind it is cell-based. The following applies: Homo sapiens, MDA-MB-231, 96 h, MDA-MB-231 cells, median, read-out: Prolif-MDA MB-231, IC50-[mol/l] (median). Put shortly:
(§1)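 Growth was measured by crystal violet staining after cells had been treated with compounds (0.01-10 µmol/L, 0.1% DMSO) for 4 days, beginning 24 h after seeding. Values were normalized to a zero-point plate and to untreated controls, and IC50 values were derived by a four-parameter fit.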

Test [4] has as its system CAL-120, human breast adenocarcinoma cells. Briefly: Proliferation assay CAL-120 (crystal violet, 4 days). The following applies: Homo sapiens, CAL-120, 96 h, CAL-120 cells, median, read-out: Prolif-CAL-120, IC50-[mol/l] (median). In kind it is cell-based. Put shortly:
as §1

T1 sequence (Q9NYV4 whole entry): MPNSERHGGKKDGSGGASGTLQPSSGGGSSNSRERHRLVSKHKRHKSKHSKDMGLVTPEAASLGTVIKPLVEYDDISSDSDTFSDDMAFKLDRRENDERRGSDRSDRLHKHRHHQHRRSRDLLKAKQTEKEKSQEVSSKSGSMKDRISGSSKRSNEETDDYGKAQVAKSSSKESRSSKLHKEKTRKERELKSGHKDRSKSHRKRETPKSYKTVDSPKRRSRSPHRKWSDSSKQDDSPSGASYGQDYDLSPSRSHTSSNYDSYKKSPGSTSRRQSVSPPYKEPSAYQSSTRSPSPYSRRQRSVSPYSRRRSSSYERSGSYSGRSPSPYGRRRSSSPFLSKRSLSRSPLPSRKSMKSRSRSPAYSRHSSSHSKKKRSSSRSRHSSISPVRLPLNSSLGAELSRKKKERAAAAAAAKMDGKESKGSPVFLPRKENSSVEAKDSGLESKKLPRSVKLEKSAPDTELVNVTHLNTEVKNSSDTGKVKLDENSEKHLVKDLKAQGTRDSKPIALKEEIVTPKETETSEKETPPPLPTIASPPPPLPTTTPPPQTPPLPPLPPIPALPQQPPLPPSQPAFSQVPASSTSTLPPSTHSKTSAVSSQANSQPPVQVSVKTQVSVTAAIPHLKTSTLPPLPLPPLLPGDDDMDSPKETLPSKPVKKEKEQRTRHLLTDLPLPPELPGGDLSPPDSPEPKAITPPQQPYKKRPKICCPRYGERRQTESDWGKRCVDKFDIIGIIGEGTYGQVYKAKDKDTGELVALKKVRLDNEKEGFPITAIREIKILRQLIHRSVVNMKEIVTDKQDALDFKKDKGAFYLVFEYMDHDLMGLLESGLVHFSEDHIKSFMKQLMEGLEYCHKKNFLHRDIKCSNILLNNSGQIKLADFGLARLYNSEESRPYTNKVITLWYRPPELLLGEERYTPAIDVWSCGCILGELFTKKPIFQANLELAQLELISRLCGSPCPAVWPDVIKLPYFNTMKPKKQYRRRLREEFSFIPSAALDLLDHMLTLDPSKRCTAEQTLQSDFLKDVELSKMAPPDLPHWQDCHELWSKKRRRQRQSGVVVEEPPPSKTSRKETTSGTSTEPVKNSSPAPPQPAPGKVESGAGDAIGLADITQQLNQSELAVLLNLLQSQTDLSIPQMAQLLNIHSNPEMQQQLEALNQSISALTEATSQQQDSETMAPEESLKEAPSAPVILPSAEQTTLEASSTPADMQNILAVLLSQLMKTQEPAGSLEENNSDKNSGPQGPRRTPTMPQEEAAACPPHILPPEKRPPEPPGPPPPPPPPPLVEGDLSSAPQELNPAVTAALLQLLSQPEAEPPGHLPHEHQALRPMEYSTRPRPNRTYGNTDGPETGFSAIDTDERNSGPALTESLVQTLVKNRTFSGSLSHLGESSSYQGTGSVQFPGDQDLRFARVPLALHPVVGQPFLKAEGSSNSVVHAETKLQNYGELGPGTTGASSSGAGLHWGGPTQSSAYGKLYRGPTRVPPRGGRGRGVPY
T1 sequence (O75909 whole entry partner): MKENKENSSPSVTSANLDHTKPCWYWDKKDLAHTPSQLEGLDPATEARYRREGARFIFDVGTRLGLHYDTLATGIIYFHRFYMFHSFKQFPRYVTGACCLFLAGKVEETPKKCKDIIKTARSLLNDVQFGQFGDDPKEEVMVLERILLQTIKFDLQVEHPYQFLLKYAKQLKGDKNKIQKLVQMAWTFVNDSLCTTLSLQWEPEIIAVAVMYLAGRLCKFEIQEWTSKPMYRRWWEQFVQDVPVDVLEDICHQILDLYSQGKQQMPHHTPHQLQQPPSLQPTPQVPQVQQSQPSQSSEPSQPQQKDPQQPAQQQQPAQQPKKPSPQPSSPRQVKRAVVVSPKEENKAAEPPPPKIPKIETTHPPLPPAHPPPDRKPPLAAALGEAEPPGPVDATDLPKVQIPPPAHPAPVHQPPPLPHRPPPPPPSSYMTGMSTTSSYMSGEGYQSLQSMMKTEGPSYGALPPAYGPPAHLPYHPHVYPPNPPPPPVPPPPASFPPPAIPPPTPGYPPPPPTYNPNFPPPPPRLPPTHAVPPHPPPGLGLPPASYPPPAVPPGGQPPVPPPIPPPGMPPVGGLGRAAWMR

Take `Cc1ccc2[nH]c(CNc3nc(N4C[C@@H]5CCCN[C@@H]5C4)nc4c(C5CC5)cnn34)nc2c1` [Example 195, 8-cyclopropyl-N-[(5-methyl-1H-benzimidazol-2-yl)methyl]-2-[(4aS,7aS)-octahydro-6H-pyrrolo[3,4-b]pyridin-6-yl]pyrazolo[1,5-a][1,3,5]triazin-4-amine]: in test [1], the DC50 came out at 2.18 nM. Moreover, the “(IC50 CDK12 high ATP) to (Degradation DC50 CDK12) ratio” value in test [1] was 3781. Further, the pIC50 is 8.55 in test [2], 8.32 in test [3] and 8.35 in test [4].
For `OC[C@@H]1CCCCN1c1nc(NCc2nc3cc(F)ccc3[nH]2)n2ncc(C3CC3)c2n1` [Example 191, [(2S)-1-(8-cyclopropyl-4-{[(5-fluoro-1H-benzimidazol-2-yl)methyl]amino}pyrazolo[1,5-a][1,3,5]triazin-2-yl)piperidin-2-yl]methanol], the DC50 in test [1] was 0.606 nM. Further, the “(IC50 CDK12 high ATP) to (Degradation DC50 CDK12) ratio” value in test [1] is 548. Besides, the pIC50 in test [2] is 8.66; in test [3], 8.01; in test [4], 8.94.
With `COc1cccc2[nH]c(CNc3nc(N4CCN(C)CC4)nc4c(C5CC5)cnn34)nc12` [Example 197, 8-cyclopropyl-N-[(4-methoxy-1H-benzimidazol-2-yl)methyl]-2-(4-methylpiperazin-1-yl)pyrazolo[1,5-a][1,3,5]triazin-4-amine], in test [1], the DC50 came to 1.4 nM. In addition, in test [1], the “(IC50 CDK12 high ATP) to (Degradation DC50 CDK12) ratio” value is given as 6827. Moreover, the pIC50 in test [2] is 8.20; in test [3], 7.81; in test [4] it was 8.30.
For `CN1CC[C@H]2CN(c3nc(NCc4nc5ccccc5[nH]4)n4ncc(Br)c4n3)C[C@H]21` [Example 179, N-[(1H-benzimidazol-2-yl)methyl]-8-bromo-2-[(3aS,6aS)-1-methylhexahydropyrrolo[3,4-b]pyrrol-5 (1H)-yl]pyrazolo[1,5-a][1,3,5]triazin-4-amine], the DC50 in test [1] was determined as 4.59 nM. Also, the “(IC50 CDK12 high ATP) to (Degradation DC50 CDK12) ratio” value in test [1] is given as >4361. The pIC50 is 7.66 in test [2], 7.13 in test [3] and 7.78 in test [4].
For `Fc1ccc2[nH]c(CNc3nc(N4CCNCC4)nc4c(C5CC5)cnn34)nc2c1F` [Example 174, 8-cyclopropyl-N-[(4,5-difluoro-1H-benzimidazol-2-yl)methyl]-2-(piperazin-1-yl)pyrazolo[1,5-a][1,3,5]triazin-4-amine], the DC50 in test [1] came to 0.645 nM. Also, the “(IC50 CDK12 high ATP) to (Degradation DC50 CDK12) ratio” value in test [1] worked out at 1851. Also, the values for the pIC50 in test [2], in test [3] and in test [4] were 9.06, 8.66 and 9.00, respectively.
With `Fc1cccc2[nH]c(CNc3nc(N4C[C@@H]5CCCN[C@@H]5C4)nc4c(C5CC5)cnn34)nc12` [Example 187, 8-cyclopropyl-N-[(4-fluoro-1H-benzimidazol-2-yl)methyl]-2-[(4aS,7aS)-octahydro-6H-pyrrolo[3,4-b]pyridin-6-yl]pyrazolo[1,5-a][1,3,5]triazin-4-amine], the DC50 in test [1] is 0.707 nM. The “(IC50 CDK12 high ATP) to (Degradation DC50 CDK12) ratio” value in test [1] is reported as 9192. Also, the pIC50 was 8.04 in test [2], 7.86 in test [3] and 8.96 in test [4].
Taken in the same sequence, the figures for `Fc1ccc2[nH]c(CNc3nc(N4C[C@@H]5C[C@H]4CO5)nc4c(C5CC5)cnn34)nc2c1` [Example 185, 8-cyclopropyl-N-[(5-fluoro-1H-benzimidazol-2-yl)methyl]-2-[(1S,4S)-2-oxa-5-azabicyclo[2.2.1]heptan-5-yl]pyrazolo[1,5-a][1,3,5]triazin-4-amine] were 2.49 nM, >7872, 7.58, 7.23 and 7.73.
For `COc1cccc2[nH]c(CNc3nc(N4C[C@@H](C)N[C@@H](C)C4)nc4c(C5CC5)cnn34)nc12` [Example 212, 8-cyclopropyl-2-[(3R,5S)-3,5-dimethylpiperazin-1-yl]-N-[(4-methoxy-1H-benzimidazol-2-yl)methyl]pyrazolo[1,5-a][1,3,5]triazin-4-amine], in that order: 1.09 nM, 3798, 8.26, 8.26 and 8.64.
Take `Brc1cnn2c(NCc3nc4ccccc4[nH]3)nc(N3CCNC4(CC4)C3)nc12` [Example 176, N-[(1H-benzimidazol-2-yl)methyl]-8-bromo-2-(4,7-diazaspiro[2.5]octan-7-yl)pyrazolo[1,5-a][1,3,5]triazin-4-amine]: in test [1], the DC50 was 1.53 nM. The “(IC50 CDK12 high ATP) to (Degradation DC50 CDK12) ratio” value in test [1] stood at 1525. The pIC50 in test [2] was 8.33; in test [3], 7.84; in test [4], 8.36.
For `C[C@@H]1CN(c2nc(NCc3nc4cc(F)ccc4[nH]3)n3ncc(C4CC4)c3n2)C[C@H](C)N1` [Example 175, 8-cyclopropyl-2-[(3R,5S)-3,5-dimethylpiperazin-1-yl]-N-[(5-fluoro-1H-benzimidazol-2-yl)methyl]pyrazolo[1,5-a][1,3,5]triazin-4-amine], in that order: 0.322 nM, 34272, 8.79, 8.49 and 8.94.
Taken in the same sequence, the figures for `OC[C@@H]1CCCCN1c1nc(NCc2nc3c(F)cccc3[nH]2)n2ncc(C3CC3)c2n1` [Example 189, [(2S)-1-(8-cyclopropyl-4-{[(4-fluoro-1H-benzimidazol-2-yl)methyl]amino}pyrazolo[1,5-a][1,3,5]triazin-2-yl)piperidin-2-yl]methanol] were 0.557 nM, 20, 8.70, 7.97 and 8.33.
Consider `Brc1cnn2c(NCc3nc4ccccc4[nH]3)nc(N3CC4CCC(C3)N4)nc12` [Example 232, N-(1H-benzimidazol-2-ylmethyl)-8-bromo-2-(3,8-diazabicyclo[3.2.1]octan-3-yl)pyrazolo[1,5-a][1,3,5]triazin-4-amine], for which the DC50 in test [1] is > 3.6 nM. Besides, the figures for the pIC50 in test [2], in test [3] and in test [4] were 8.31, 7.75 and 8.28, respectively.
For the compound `O=C1CN(c2nc(NCc3nc4ccccc4[nH]3)n3ncc(Br)c3n2)CCN1` [Example 167, 4-(4-{[(1H-benzimidazol-2-yl)methyl]amino}-8-bromopyrazolo[1,5-a][1,3,5]triazin-2-yl)piperazin-2-one], the DC50 in test [1] was 16.9 nM. In addition, in test [1], the “(IC50 CDK12 high ATP) to (Degradation DC50 CDK12) ratio” value was determined as 420. In addition, the pIC50 in test [2] was 6.37; in test [3], 6.15; in test [4], 7.15.
Taken in the same sequence, the figures for `OC1(C(F)(F)F)CCN(c2nc(NCc3nc4ccccc4[nH]3)n3ncc(Br)c3n2)C1` (stereo not drawn) [Example 200, 1-[4-(1H-benzimidazol-2-ylmethylamino)-8-bromo-pyrazolo[1,5-a][1,3,5]triazin-2-yl]-3-(trifluoromethyl)pyrrolidin-3-ol] were 117 nM, 37, 7.18, 6.82 and 7.02.
